The numbers were not newly measured in patent US20260014099A1, “SELF-PRESERVING TOPICAL PHARMACEUTICAL COMPOSITIONS COMPRISING DIETHYLENE GLYCOL MONOETHYL ETHER” (priority 2022, published 2026), which cites them from elsewhere.

On to `NC(N)=O` [urea], for which the “Water Solubility” value is 1,190,000 mg/liter.
Consider ivermectin, for which the “Water Solubility” value was 4 mg/L.
